Patent US20240246964A1 (Arbutus Biopharma Corporation, priority 2021, published 2024)

biological target: human PD-L1 (Homo sapiens (Human), UniProt Q9NZQ7); experiment: T cell activation luciferase reporter cell culture system (T Cell Activation Assay); format: cell-based; details: luciferase reporter assay; PD-L1 aAPC/CHO-K1 cells with PD-1 effector Jurkat T cells
Sequence (Q9NZQ7 19-290): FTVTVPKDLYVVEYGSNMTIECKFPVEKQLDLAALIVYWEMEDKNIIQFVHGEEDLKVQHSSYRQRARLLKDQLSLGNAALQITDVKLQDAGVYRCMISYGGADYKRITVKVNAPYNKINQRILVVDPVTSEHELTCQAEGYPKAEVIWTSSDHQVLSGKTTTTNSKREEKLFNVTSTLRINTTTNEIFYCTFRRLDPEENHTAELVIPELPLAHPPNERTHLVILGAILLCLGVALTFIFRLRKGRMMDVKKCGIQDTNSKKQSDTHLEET

Row | SMILES | EC50 [nM]
1 | COc1nc(-c2cccc(-c3ccnc(-c4ccc(CN5CC6(C5)CN(C(C)=O)C6)c(OC(F)F)c4)c3Cl)c2Cl)ccc1CNC1CCN(C(C)=O)CC1 [Example 664, 1-(4-(((6-(3-(2-(4-((6-Acetyl-2,6-diazaspiro[3.3]heptan-2-yl)methyl)-3-(difluoromethoxy)phenyl)-3-chloropyridin-4-yl)-2-chlorophenyl)-2-methoxypyridin-3-yl)methyl)amino)piperidin-1-yl)ethan-1-one] | 32.4
2 | COc1cc(-c2nccc(-c3cccc(-c4ccc(CN[C@@H]5CCN(C(C)=O)C5)c(OC)n4)c3Cl)c2Cl)ccc1CN[C@@H]1CCN(C(C)=O)C1 [Example 374, 1-((R)-3-(((6-(3-(2-(4-((((R)-1-Acetylpyrrolidin-3-yl)amino)methyl)-3-methoxyphenyl)-3-chloropyridin-4-yl)-2-chlorophenyl)-2-methoxypyridin-3-yl)methyl)amino)pyrrolidin-1-yl)ethan-1-one] | 44.6
3 | COCCC(=O)N1CCC(NCc2ccc(-c3cccc(-c4ccnc(-c5ccc(CN6CC7(CNC(=O)C7)C6)c(OC)c5)c4Cl)c3Cl)nc2OC)CC1 [Example 625, 2-(4-(3-Chloro-4-(2-chloro-3-(6-methoxy-5-(((1-(3-methoxypropanoyl)piperidin-4-yl)amino)methyl)pyridin-2-yl)phenyl)pyridin-2-yl)-2-methoxybenzyl)-2,6-diazaspiro[3.4]octan-7-one] | 20.8
4 | COc1cc(-c2nccc(-c3cccc(-c4ccc(CN5CC6(C5)CN(C(C)=O)C6)c(OC)n4)c3C#N)c2Cl)ccc1CN1CC2(C1)CN(C(C)=O)C2 [Example 636, 2-(2-(4-((6-Acetyl-2,6-diazaspiro[3.3]heptan-2-yl)methyl)-3-methoxyphenyl)-3-chloropyridin-4-yl)-6-(5-((6-acetyl-2,6-diazaspiro[3.3]heptan-2-yl)methyl)-6-methoxypyridin-2-yl)benzonitrile] | 1270
5 | COc1cc(-c2nccc(-c3cccc(-c4ccc(CN5CC[C@H](O)C5)c(OC)n4)c3Cl)c2Cl)ccc1CN1CC[C@H](O)C1 [Example 435, (S)-1-((6-(2-Chloro-3-(3-chloro-2-(4-(((S)-3-hydroxypyrrolidin-1-yl)methyl)-3-methoxyphenyl)pyridin-4-yl)phenyl)-2-methoxypyridin-3-yl)methyl)pyrrolidin-3-ol] | 9.95
6 | COc1cc(-c2ncnc(-c3cccc(-c4ccc(CNCCO)c(OC)n4)c3Cl)c2OC)ccc1CNCCO [Example 728, 2-((4-(6-(2-Chloro-3-(5-(((2-hydroxyethyl)amino)methyl)-6-methoxypyridin-2-yl)phenyl)-5-methoxypyrimidin-4-yl)-2-methoxybenzyl)amino)ethan-1-ol] | ≥ 10000
7 | COc1cc(-c2nccc(-c3cccc(-c4ccc(CN5CC6(C5)CN(C(C)=O)C6)c(OC)n4)c3Cl)c2C)ccc1CN1CC2(C1)CN(C(C)=O)C2 [Example 369, 1-(6-((6-(3-(2-(4-((6-Acetyl-2,6-diazaspiro[3.3]heptan-2-yl)methyl)-3-methoxyphenyl)-3-methylpyridin-4-yl)-2-chlorophenyl)-2-methoxypyridin-3-yl)methyl)-2,6-diazaspiro[3.3]heptan-2-yl)ethan-1-one] | 369
8 | COc1cc(-c2nccc(-c3cccc(-c4ccc(CN5CCC(NC(C)=O)CC5)c(OC)n4)c3Cl)c2Cl)ccc1CNC[C@H]1CCC(=O)N1 [Example 356, (R)—N-(1-((6-(2-Chloro-3-(3-chloro-2-(3-methoxy-4-((((5-oxopyrrolidin-2-yl)methyl)amino)methyl)phenyl)pyridin-4-yl)phenyl)-2-methoxypyridin-3-yl)methyl)piperidin-4-yl)acetamide] | 25.5
9 | COc1cc(-c2nccc(-c3cccc(-c4ccc(CN5CC6(CNC(=O)C6)C5)c(OC)n4)c3Cl)c2Cl)ccc1CN[C@H]1CC[C@@H](O)CC1 [Example 503, 2-((6-(2-Chloro-3-(3-chloro-2-(4-((((1s,4s)-4-hydroxycyclohexyl)-amino)-methyl)-3-methoxyphenyl)pyridin-4-yl)phenyl)-2-methoxypyridin-3-yl)methyl)-2,6-diazaspiro[3.4]octan-7-one] | 36.2
10 | COc1nc(-c2cccc(-c3ccnc(-c4ccc(CN5CC6(CNC(=O)C6)C5)c(OC(F)F)c4)c3Cl)c2Cl)ccc1CN1CC2(CNC(=O)C2)C1 [Example 597, 2-((6-(2-Chloro-3-(3-chloro-2-(3-(difluoromethoxy)-4-((7-oxo-2,6-diazaspiro[3.4]octan-2-yl)methyl)phenyl)pyridin-4-yl)phenyl)-2-methoxypyridin-3-yl)methyl)-2,6-diazaspiro[3.4]octan-7-one] | 16.4
11 | COc1cc(-c2nccc(-c3cccc(-c4ccc(CNC5CCOCC5)c(OC)n4)c3Cl)c2Cl)ccc1CN1CC2(C1)CN(C(C)=O)C2 [Example 492, 1-(6-(4-(3-chloro-4-(2-chloro-3-(6-methoxy-5-(((tetrahydro-2H-pyran-4-yl)amino)methyl)pyridin-2-yl)phenyl)pyridin-2-yl)-2-methoxybenzyl)-2,6-diazaspiro[3.3]heptan-2-yl)ethan-1-one] | 18.5

Continued by falling EC50, values first:

Row | EC50 [nM] | SMILES
12 | 703 | COc1cc(-c2nccc(-c3cccc(NC(=O)c4ccc(CNC[C@@H]5CCC(=O)N5)cn4)c3C)c2Cl)ccc1CNCCO [Example 750, (S)—N-(3-(3-Chloro-2-(4-(((2-hydroxyethyl)amino)methyl)-3-methoxyphenyl)pyridin-4-yl)-2-methylphenyl)-5-((((5-oxopyrrolidin-2-yl)methyl)amino)methyl)picolinamide]
13 | 244 | COc1cc(-c2nccc(-c3nccc(-c4ccc(CNC5CCN(C(C)=O)CC5)c(OC)n4)c3Cl)c2Cl)ccc1CNC1CCN(C(C)=O)CC1 [Example 668, 1-(4-((4-(5-(((1-acetylpiperidin-4-yl)amino)methyl)-3′,3″-dichloro-6-methoxy-[2,4′:2′,4″-terpyridin]-2″-yl)-2-methoxybenzyl)amino)piperidin-1-yl)ethan-1-one]
14 | 174 | COc1nc(-c2cccc(-c3ccnc(-c4cc(OC)c5nc(CN6CC(C)(O)C6)cn5c4)c3Cl)c2Cl)ccc1CN1CC(C)(O)C1 [Example 455, 1-((6-(2-Chloro-3-(3-chloro-2-(2-((3-hydroxy-3-methylazetidin-1-yl)methyl)-8-methoxyimidazo[1,2-a]pyridin-6-yl)pyridin-4-yl)phenyl)-2-methoxypyridin-3-yl)methyl)-3-methylazetidin-3-ol]
15 | 38.3 | COc1cc(-c2nccc(-c3cccc(-c4ccc(CNC5CCS(=O)(=O)CC5)c(OC)n4)c3Cl)c2Cl)cc(F)c1CNC1CCS(=O)(=O)CC1 [Example 349, 4-(((6-(2-Chloro-3-(3-chloro-2-(4-(((1,1-dioxidotetrahydro-2H-thiopyran-4-yl)amino)methyl)-3-fluoro-5-methoxyphenyl)pyridin-4-yl)phenyl)-2-methoxypyridin-3-yl)methyl)amino)tetrahydro-2H-thiopyran 1,1-dioxide]
16 | 36.4 | COc1cc(-c2nccc(-c3cccc(-c4ccc(CNCC5(O)CC5)c(OC)n4)c3Cl)c2Cl)ccc1CNCC1(O)CC1 [Example 504, 1-((((6-(2-Chloro-3-(3-chloro-2-(4-((((1-hydroxycyclopropyl)methyl)amino)methyl)-3-methoxyphenyl)pyridin-4-yl)phenyl)-2-methoxypyridin-3-yl)methyl)amino)methyl)cyclopropan-1-ol]
